# Source: patent US20080269326A1, “Use of 1-Phenyl-3-Dimethylamino-propane Compounds for Treating Neuropathic Pain” (GRUENENTHAL GmbH, priority 2007, published 2008)
# Experiments:
# [1] = system: cold allodynia in Bennett animals; test: Bennett model (chronic constriction injury), cold allodynia on 4° C. cold metal plate; format: in vivo, rat
# Method: The effectiveness in treating neuropathic pain was investigated in the Bennett model (chronic constriction injury; Bennett and Xie, 1988, Pain 33: 87-107).
# (§1) Sprague-Dawley rats weighing 140-160 g are provided with four loose ligatures of the right sciatic nerve under nembutal narcosis. The animals develop a hypersensitivity in the paw innervated by the damaged nerve, which after a healing phase of one week is quantified over about four weeks by means of a 4° C. cold metal plate (cold allodynia). The animals are observed for two minutes on this plate and the number of retractive movements of the damaged paw are measured. The effect of the substance is determined with reference to the base value before application of the substance, at four different times over a period of one hour(15, 30, 45 and 60 minutes after application) and the resultant area under the curve (AUD) as well as the inhibition of cold allodynia at the individual measurement points is expressed in percent effect with reference to the vehicle control (AUD) and to the initial value (individual measurement points). The cohort size is n=10.
# [2] = system: cold allodynia in morphine-tolerant Bennett animals; test: Bennett model cold allodynia in morphine-tolerant animals; format: in vivo, rat
# Method: as §1
# The underlying question is the action of a test substance having a presumably opioid action mechanism in patients who are tolerant or treatment-resistant to morphine. […] The action of test substances in naive (non-morphine-tolerant) animals and morphine-tolerant animals is compared in Table 4. […] Morphine [10 mg/kg i.p.], Compound 9 [10 and 21.5 mg/kg i.p.], Compound 10 [0.46 and 1 mg/kg i.p.], Compound 4 [21.5 mg/kg i.p.] and Compound 11 [21.5 mg/kg i.p.] were tested analogously to Example 1.
# [3] = system: tactile allodynia in Chung animals; test: Chung model (spinal nerve ligature), tactile allodynia, electronic von Frey; format: in vivo; conditions: Rattus norvegicus, ip, 0.5 h; rats, i.p., 30 minutes after administration
# Method: Spinal nerve ligatures according to Kim & Chung (1992 Pain 50, 355-363) were applied to the left L5/L6 spinal nerves of male Spraque-Dawley rats. Four to six days after the operation the tactile threshold baseline (withdrawal threshold) was measured on the ipsilateral and contralateral rear paw by an electronic von Frey anaesthesiometer (IITC Life Science, USA). After the test and measurement of the baseline, morphine, gabapentin and some of the aforementioned compounds used according to the invention were administered. The tactile withdrawal thresholds were measured 30 minutes after the administration. The results are expressed as ED50 and % maximal possible effect (% MPE) on the ipsilateral side, in which the baseline is taken as 0% and the withdrawal threshold of a control group is taken as 100% MPE.
smiles,measurement,setting,value
"CC[C@@H](c1cccc(O)c1)[C@@H](C)CN(C)C [Compound 9, (1R,2R)-3-(3-dimethylamino-1-ethyl-2-methylpropyl)-phenol]",Cold allodynia (% AUD) Naïve animals,[1]; 10 mg/kg i.p.,49.3 % AUD
same,Cold allodynia (% AUD) Naïve animals,[1]; 21.5 mg/kg i.p.,53.4 % AUD
same,ED50,"[1]; Rattus norvegicus, ip, rats",13 mg/kg
same,Cold allodynia (% AUD) Morphine-tolerant animals,[2]; 10 mg/kg i.p.,37.3 % AUD
same,Cold allodynia (% AUD) Morphine-tolerant animals,[2]; 21.5 mg/kg i.p.,36.7 % AUD
same,ED50,[3],8.15 mg/kg
